Source: publication PMC5363571 (Oncotarget, 2016)
Structures can show the parent of a compound that is named as a salt.

target: T1, USP7 (Homo sapiens, UniProt Q93009); test: biochemical; parameters: Ub-AMC hydrolysis by recombinant USP7 (20 nM), 30 min pre-incubation, fluorescence read-out; details: read-out: % Inhibition at 50 μM
T1 sequence (Q93009 whole entry): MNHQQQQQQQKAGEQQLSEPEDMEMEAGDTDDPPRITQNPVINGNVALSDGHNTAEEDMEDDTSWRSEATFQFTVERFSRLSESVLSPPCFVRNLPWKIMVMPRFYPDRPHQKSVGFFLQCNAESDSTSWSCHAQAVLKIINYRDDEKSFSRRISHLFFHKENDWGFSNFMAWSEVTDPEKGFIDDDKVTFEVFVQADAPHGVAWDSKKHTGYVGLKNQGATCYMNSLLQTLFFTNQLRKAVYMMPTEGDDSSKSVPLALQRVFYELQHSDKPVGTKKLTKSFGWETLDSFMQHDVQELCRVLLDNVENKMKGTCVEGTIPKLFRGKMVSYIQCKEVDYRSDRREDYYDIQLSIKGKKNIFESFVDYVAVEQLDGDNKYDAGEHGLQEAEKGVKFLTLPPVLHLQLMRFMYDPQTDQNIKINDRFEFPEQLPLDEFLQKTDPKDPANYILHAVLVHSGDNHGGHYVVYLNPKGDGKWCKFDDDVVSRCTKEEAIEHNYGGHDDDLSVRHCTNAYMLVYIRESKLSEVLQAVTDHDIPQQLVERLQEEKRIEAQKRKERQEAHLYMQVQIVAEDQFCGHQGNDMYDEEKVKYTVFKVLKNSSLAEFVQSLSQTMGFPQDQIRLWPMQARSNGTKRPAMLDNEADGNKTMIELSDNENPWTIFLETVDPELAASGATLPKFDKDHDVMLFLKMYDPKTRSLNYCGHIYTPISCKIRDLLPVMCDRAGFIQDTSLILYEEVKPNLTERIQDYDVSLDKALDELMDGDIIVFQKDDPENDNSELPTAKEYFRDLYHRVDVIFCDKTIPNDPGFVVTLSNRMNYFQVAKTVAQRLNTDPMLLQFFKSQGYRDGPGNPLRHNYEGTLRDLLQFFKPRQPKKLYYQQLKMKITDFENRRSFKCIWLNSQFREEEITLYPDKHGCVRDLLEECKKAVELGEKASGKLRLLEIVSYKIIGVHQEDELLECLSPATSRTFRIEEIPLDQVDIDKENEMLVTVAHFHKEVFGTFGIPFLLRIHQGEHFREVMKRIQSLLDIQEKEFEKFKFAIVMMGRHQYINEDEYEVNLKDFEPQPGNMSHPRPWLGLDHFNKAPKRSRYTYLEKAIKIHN

SMILES | inhibition at 50 µM
COC(=O)[C@]12CCC(C)(C)C[C@H]1[C@H]1C(=O)C=C3[C@@]4(C)C=C(C#N)C(=O)C(C)(C)[C@@H]4CC[C@@]3(C)[C@]1(C)CC2 [CDDO-Me] | 91.5%
CCOC(=O)[C@H](CCc1ccccc1)N[C@@H](C)C(=O)N1Cc2ccccc2C[C@H]1C(=O)O [Quinapril HCl] | < 5%
CC[C@H](C)C(=O)O[C@H]1CCC=C2C=C[C@H](C)[C@H](CC[C@@H]3C[C@@H](O)CC(=O)O3)[C@H]21 [Mevastatin] | < 5%
COC1=C(OC)C(=O)C(CCCCCCCCCCO)=C(C)C1=O [Idebenone] | < 5%
O=C(O)Cc1ccccc1 [Sodium phenylacetate] | < 5%
CC(C)c1cccc(C(C)C)c1O [Propofol] | < 5%
O=C(C1CCCCC1)N1CC(=O)N2CCc3ccccc3C2C1 (stereo not drawn) [Praziquantel] | < 5%
NC1CCN(c2c(F)cc3c(=O)c(C(=O)O)cn(C4CC4)c3c2Cl)C1 (stereo not drawn) [Clinafloxacin HCl] | < 5%
CC1(C)[C@H](C(=O)O)N2C(=O)C[C@H]2S1(=O)=O [Sulbactam] | < 5%
CCOC(=O)C1=C(C)NC(C)=C(C(=O)OC)C1c1cccc(Cl)c1Cl (stereo not drawn) [Felodipine] | 7.9%
CCCCC(C#N)(Cn1cncn1)c1ccc(Cl)cc1 (stereo not drawn) [Myclobutanil] | < 5%
Cc1oncc1C(=O)Nc1ccc(C(F)(F)F)cc1 [Leflunomide] | < 5%
CCOC(=O)[N-]c1c[n+](N2CCOCC2)no1 [Molsidomine] | < 5%
CC(C)CC(N(C)C)C1(c2ccc(Cl)cc2)CCC1 (stereo not drawn) [Sibutramine HCl] | < 5%
C[C@H]1C[C@@H]2[C@H]([C@@H](O)C[C@@]3(C)[C@H]2CC[C@]3(O)C(=O)CO)[C@@]2(C)C=CC(=O)C=C12 [Methylprednisolone] | < 5%
CN/C(=N\CCSCc1nc[nH]c1C)NC#N [Cimetidine] | < 5%
CC1=C(C)C(=O)C(CCCCC#CCCCC#CCO)=C(C)C1=O [Docebenone] | < 5%
COc1cccc2c1C(=O)c1c(O)c3c(c(O)c1C2=O)C[C@@](O)(C(C)=O)C[C@@H]3O[C@H]1C[C@H](N)[C@H](O)[C@H](C)O1 [Daunorubicin HCl] | < 5%
CCCN1C[C@H](CSC)C[C@@H]2c3cccc4[nH]cc(c34)C[C@H]21 [Pergolide mesylate] | < 5%
CC(=O)O[C@H]1C(=O)[C@@]2(C)[C@H]([C@H](OC(=O)c3ccccc3)[C@]3(O)C[C@H](OC(=O)[C@H](O)[C@@H](NC(=O)c4ccccc4)c4ccccc4)C(C)=C1C3(C)C)[C@]1(OC(C)=O)CO[C@@H]1C[C@@H]2O [Taxol] | 26.9%
CCOC(=O)N1CCC(=C2c3ccc(Cl)cc3CCc3cccnc32)CC1 [Loratadine] | 20.4%
O=C1NC(=O)C(c2ccccc2)(c2ccccc2)N1 [Phenytoin] | < 5%

SMILES | inhibition at 50 µM
Nc1nc(N)nc(-c2cc(Cl)ccc2Cl)n1 [Irsogladine maleate] | < 5%
O=C(O)c1ccccc1Nc1cccc(C(F)(F)F)c1 [Flufenamic acid] | < 5%
CS(=O)(=O)Nc1ccc([N+](=O)[O-])cc1Oc1ccccc1 [Nimesulide] | < 5%
COc1ccc2cc(CCC(C)=O)ccc2c1 [Nabumetone] | < 5%
Nc1nc2c(ncn2COCCO)c(=O)[nH]1 [Acycloguanosine] | < 5%
CC/C(=C(\c1ccccc1)c1ccc(OCCN(C)C)cc1)c1ccccc1 [Tamoxifen citrate] | < 5%
CCCCC[C@H](O)/C=C/[C@H]1[C@H](O)CC(=O)[C@@H]1CCCCCCC(=O)O [Alprostadil] | < 5%
CC(C)[N+]1(C)C2CCC1CC(OC(=O)C(CO)c1ccccc1)C2 (stereo not drawn) [Ipratropium Br] | < 5%
O=C1NCN(c2ccccc2)C12CCN(CCCC(c1ccc(F)cc1)c1ccc(F)cc1)CC2 [Fluspirilene] | < 5%
CCN1CCCC1CNC(=O)c1cc(S(=O)(=O)CC)c(N)cc1OC (stereo not drawn) [Amisulpride] | < 5%
CC[C@@]1(O)C(=O)OCc2c1cc1n(c2=O)Cc2cc3ccccc3nc2-1 [Camptothecin] | < 5%
COc1cc2c(cc1OC)C(=O)C(CC1CCN(Cc3ccccc3)CC1)C2 (stereo not drawn) [Donepezil HCl] | < 5%
CC(=O)SCC(Cc1ccccc1)C(=O)NCC(=O)OCc1ccccc1 (stereo not drawn) [Racecadotril] | < 5%
COc1ccc(C2CNC(=O)C2)cc1OC1CCCC1 (stereo not drawn) [Rolipram] | < 5%
c1ccc([C@H]2CN3CCSC3=N2)cc1 [Levamisole HCl] | < 5%
Nc1ccn([C@H]2CC[C@@H](CO)O2)c(=O)n1 [2',3' - dideoxycytidine] | < 5%
O=C1Nc2ccc(Cl)cc2[C@@](C#CC2CC2)(C(F)(F)F)O1 [Efavirenz] | 29.8%
O=C1CN2Cc3c(ccc(Cl)c3Cl)N=C2N1 [Anagrelide] | 8.4%
O=C(O)COCCN1CCN(C(c2ccccc2)c2ccc(Cl)cc2)CC1 (stereo not drawn) [Cetirizine 2HCl] | < 5%
NCC1(CC(=O)O)CCCCC1 [Gabapentin] | < 5%
Cc1ccc(C(=O)c2cc(O)c(O)c([N+](=O)[O-])c2)cc1 [Tolcapone] | 28.6%

target: USP2 (Homo sapiens, UniProt O75604); test: in vitro deubiquitinase activity assay (Supplementary Figure S1); format: biochemical; details: not given
Sequence (O75604 whole entry): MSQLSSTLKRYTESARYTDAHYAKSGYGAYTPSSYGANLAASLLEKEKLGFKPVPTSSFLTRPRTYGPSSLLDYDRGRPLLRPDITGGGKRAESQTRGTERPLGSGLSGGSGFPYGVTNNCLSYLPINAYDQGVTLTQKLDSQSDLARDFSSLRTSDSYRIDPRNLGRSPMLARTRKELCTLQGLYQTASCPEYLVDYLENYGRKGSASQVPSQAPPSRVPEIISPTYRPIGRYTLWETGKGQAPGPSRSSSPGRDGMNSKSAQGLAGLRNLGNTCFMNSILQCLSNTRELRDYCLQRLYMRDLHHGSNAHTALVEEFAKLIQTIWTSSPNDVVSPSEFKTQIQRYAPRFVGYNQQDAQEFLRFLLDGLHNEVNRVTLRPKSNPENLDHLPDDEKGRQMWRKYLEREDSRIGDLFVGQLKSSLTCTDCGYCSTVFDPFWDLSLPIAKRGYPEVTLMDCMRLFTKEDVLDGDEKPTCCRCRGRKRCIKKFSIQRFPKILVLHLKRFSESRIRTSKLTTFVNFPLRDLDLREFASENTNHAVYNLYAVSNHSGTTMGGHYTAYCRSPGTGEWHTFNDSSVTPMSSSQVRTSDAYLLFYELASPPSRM

SMILES | IC50
COC(=O)[C@]12CCC(C)(C)C[C@H]1[C@H]1C(=O)C=C3[C@@]4(C)C=C(C#N)C(=O)C(C)(C)[C@@H]4CC[C@@]3(C)[C@]1(C)CC2 [CDDO-Me] | 22.3 µM

target: T1, USP7; test: gel-based GST-UBA52 cleavage assay and Ub-AMC assay with USP7; supported by CETSA, DARTS and HA-Ub-VS competition in HO8910 lysate; format: biochemical; details: not given

SMILES | IC50
COC(=O)[C@]12CCC(C)(C)C[C@H]1[C@H]1C(=O)C=C3[C@@]4(C)C=C(C#N)C(=O)C(C)(C)[C@@H]4CC[C@@]3(C)[C@]1(C)CC2 [CDDO-Me] | 14.1 µM
